Measured values from ChEMBL document CHEMBL1132888, “4,10-Dihydro-4-oxo-4H-imidazo[1,2-a]indeno[1,2-e]pyrazin-2-carboxylic acid derivatives: highly potent and selective AMPA receptors antagonists with in vivo activity” (Bioorg Med Chem Lett, 2000).
Activity calls are given as the source filed them. The rule behind the calls is not given here.

Experiments:
[1] = biological target: Glutamate receptor ionotropic, kainate; details: oocyte
[2] = system: Mus musculus; test: Effective dose of the intraperitoneally administered compound required to protect 50% of mice from tonic convulsion caused by maximal electric shock (MES); format: functional; details: ip
[3] = system: Mus musculus; test: Effective dose of the intraperitoneally administered compound required to protect 50% of DBA/2 mice from tonico-clonic convulsion; format: functional; details: ip
[4] = biological target: Glutamate NMDA receptor; test: Displacement of [3H]DCKA from N-methyl-D-aspartate glutamate receptor of rat cortical membrane
[5] = biological target: Glutamate receptor ionotropic, AMPA (Rattus norvegicus, UniProt P19490+P19491+P19492+P19493)
Description: Displacement of [3H]AMPA from Ionotropic glutamate receptor AMPA of rat cortical membranes

[6] = system: Mus musculus; test: Compound tested for sound induced convulsions in DBA/2 mice following ip administration; Compound was active; format: functional, organism-based
[7] = biological target: Glutamate receptor ionotropic, kainate (Rattus norvegicus) (UniProt P22756+Q01812+P42260+P42264+Q63273); test: Inhibitory activity against generation of currents by 50 uM kainate in Xenopus oocytes injected with rat brain mRNA; format: functional, cell-based; details: Oocyte

| IC50 [1] [nM] | IC50 [4] [nM] | IC50 [5] [nM] | Kb [7] [nM] | SMILES | ED50 [2] [mg/kg] | ED50 [3] [mg/kg] | Activity [6] |
| --- | --- | --- | --- | --- | --- | --- | --- |
| 260 | – | – | – | O=c1[nH]c2cc(-n3ccnc3)c([N+](=O)[O-])cc2[nH]c1=O [YM-90K] | 12 | 15 | – |
| 2 | 10000 | – | – | CNC(=O)Nc1ccc2c(c1)C(CC(=O)O)c1c-2nc(O)c2nccn12 (racemic) | 1 | 0.9 | – |
| – | – | 55 | – | CCOC(=O)c1cn2c3c(nc(O)c2n1)-c1ccc(F)cc1C3 | > 80 | – | – |
| 1800 | – | – | – | Oc1nc2c(n3ccnc13)Cc1ccccc1-2 | 62 | – | – |
| 890 | – | – | – | CN1CCCC12c1ccccc1-c1nc(O)c3nccn3c12 (racemic) | 17 | – | – |
| 230 | – | – | – | O=C(O)[C@@H]1C[C@H]2C[C@@H](CCc3nn[nH]n3)CC[C@H]2CN1 [TEZAMPANEL ANHYDROUS] | 4 | – | – |
| 25 | 455 | 60 | – | O=C(O)c1cn2c3c(nc(O)c2n1)-c1ccc(F)cc1C3 | 56 | – | – |
| 236 | 6900 | 473 | – | Nc1ccc2c(c1)Cc1c-2nc(O)c2nc(C(=O)O)cn12 | 80 | – | – |
| 30 | – | 150 | – | O=C(O)c1cn2c3c(nc(O)c2n1)-c1ccccc1C3 | 50 | 20 | – |
| – | > 10000 | – | – | NS(=O)(=O)c1cccc2c1c([N+](=O)[O-])cc1nc(O)c(O)nc12 [NBQX] | 36 | 13 | – |
| 350 | 198 | 210 | – | CCOC(=O)c1cn2c3c(nc(O)c2n1)-c1ccccc1C3 | > 80 | > 80 | – |
| 6 | 10000 | 9 | – | CCOC(=O)c1cn2c3c(nc(O)c2n1)-c1ccc(NC(=O)NC)cc1C3 | > 80 | > 20 | – |
| 1250 | 730 | 476 | – | NC(=O)c1cn2c3c(nc(O)c2n1)-c1ccccc1C3 | > 80 | – | – |
| – | 4330 | 9 | 3.92 | CNC(=O)Nc1ccc2c(c1)Cc1c-2nc(O)c2nc(C(=O)O)cn12 | 0.7 | 0.5 | Active |
